Test results from patent US8034940B2, “Modulators of glucocorticoid receptor, AP-1, and/or NF-κB activity and use thereof” (Bristol-Myers Squibb Company, priority 2006, dated 2011).

Test system: AP-1 induced transcriptional activity
Assay: Cellular Transrepressional Assay (AP-1 luciferase reporter, PMA-activated A549 cells)
Type: cell-based
Settings: for Emax: A549, 7 h, read-out: AP-1 Max % inh (Cellular Transrepression Assay)
Experimental: Cellular Transrepressional Assay
To measure the ability of test molecules to inhibit AP-1 induced transcriptional activity we utilized an A549 cell which was stably transfected with a plasmid containing 7× AP-1 DNA binding sites (pAP-1-Luc plasmid, Stratagene Co. La Jolla, Calif.) followed by the gene for luciferase. Cells were activated with 10 ng/ml of […] (PMA) plus or minus test molecules for 7 hours. After 7 hours a luciferase reagent was added to measure luciferase enzymatic activity in the cell. After a 10 minute incubation of luciferase reagent with cells, luminescence was measured in a TopCount luminescence counter. Repression of AP-1 activity was calculated as the percentage decrease in the signal induced by PMA alone. Test molecules were analyzed in the concentration range from 0.1 nM to 40 μM. EC50s were determined by using standard curve fitting methods such as Excel fit (Microsoft Co.).

[1] = Homo sapiens, maximum inhibition, Cellular Transrepression Assay
[2] = Homo sapiens, A549, Cellular Transrepression Assay

SMILES | EC50 [2] [nM] | EC50 (Cellular Transrepression Assay) [nM] | Emax [1] [%] | AP-1 Max % inh (Cellular Transrepression Assay) (maximum inhibition, Cellular Transrepression Assay) [%]
Cc1ccc(-c2csc(NC(=O)C(C)(C)C3c4ccccc4-c4ccccc43)n2)c2ccccc12 [Example 20] | 473 |  | 46.9 | 
CC(C)(C(=O)Nc1nc(-c2ccc(F)c3ccccc23)cs1)C1c2ccccc2-c2ccccc21 [Example 21] |  |  | 60.8 | 
O=C(CC1c2ccccc2Sc2ccccc21)Nc1nc(-c2ccc(F)c3ccccc23)cs1 [Example 26] |  |  | 26.9 | 
Cc1ccc(-c2csc(NC(=O)CC3c4ccccc4Sc4ccccc43)n2)c2ccccc12 [Example 27] |  |  | 15 | 
O=C(CC1c2ccccc2Sc2ccccc21)Nc1nc(-c2cccc3ccccc23)cs1 [Example 28] |  |  | 43.7 | 
COc1ccc(NC(=O)c2cccc(-c3csc(NC(=O)C(C)(C)C4c5ccccc5Oc5ccccc54)n3)c2)cc1Cl [Example 29] | 139 |  | 66.4 | 
CC(C)(C(=O)Nc1nc(-c2ccc(F)c3ccccc23)c[nH]1)C1c2ccccc2Oc2ccccc21 [Example 38] |  |  | 70.4 | 
CC(C)(C(=O)Nc1nc(-c2ccc(F)c3ccccc23)cs1)C1c2ccccc2Oc2ccc(C(F)(F)F)cc21 (stereo not drawn) [Example 40] | 461 |  | 47.8 | 
CC(C)(C(=O)Nc1nc(C(=O)c2ccccc2)cs1)C1c2ccccc2Oc2ccccc21 [Example 44] |  |  | 69.3 | 
COc1ccc2c(c1)Oc1ccccc1C2C(C)(C)C(=O)Nc1nc(-c2ccc(F)c3ccccc23)cs1 (stereo not drawn) [Example 45] | 102 |  | 71.5 | 
CC(C)(C(=O)Nc1nc(-c2ccc(F)c3ccccc23)cs1)C1c2ccccc2Oc2ncccc21 (stereo not drawn) [Example 63] |  |  | 75.8 | 
CC(C)(C(=O)Nc1nncs1)C1c2ccccc2Oc2ncccc21 (stereo not drawn) [Example 65] | 345 |  | 32.2 | 
CC(C)(C(=O)Nc1nc(-c2ccc(F)c3ccccc23)cs1)C1c2ccccc2Oc2nc(Cl)ccc21 (stereo not drawn) [Example 73] | 735 |  | 60.6 | 
CC(C)(C(=O)Nc1nc(-c2cccc3ccccc23)cs1)C1c2ccccc2Oc2nc(Cl)ccc21 (stereo not drawn) [Example 74] | 319 |  | 71.2 | 
COc1ccc2c(n1)Oc1ccccc1C2C(C)(C)C(=O)Nc1nc(-c2ccc(F)c3ccccc23)cs1 (stereo not drawn) [Example 78] | 164 |  | 65.1 | 
COc1cccc2c1Oc1ccccc1C2C(C)(C)C(=O)Nc1nc(-c2ccc(F)c3ccccc23)cs1 (stereo not drawn) [Example 82] | 126 |  | 72.6 | 
COc1ccc(Cc2csc(NC(=O)C(C)(C)C3c4ccccc4Oc4c(OCCN(C)C)cccc43)n2)cc1 (stereo not drawn) [Example 85] |  |  | 88.4 | 
Cc1cnc(NC(=O)C(C)(C)[C@H]2c3ccccc3Oc3cc(O)ccc32)s1 [Example 87] | 91.1 |  | 46 | 

SMILES | EC50 [2] [nM] | EC50 (Cellular Transrepression Assay) [nM] | Emax [1] [%] | AP-1 Max % inh (Cellular Transrepression Assay) (maximum inhibition, Cellular Transrepression Assay) [%]
Cc1csc(NC(=O)C(C)(C)[C@H]2c3ccccc3Oc3cc(O)ccc32)n1 [Example 88] | 128 |  | 49.2 | 
CC(C)(C(=O)Nc1nccs1)[C@H]1c2ccccc2Oc2cc(O)ccc21 [Example 89] | 18.1 |  | 68.3 | 
CC(C)(C(=O)Nc1nncs1)[C@H]1c2ccccc2Oc2cc(O)ccc21 [Example 90] | 6.43 |  | 59.5 | 
CC(C)(C(=O)Nc1nncs1)[C@@H]1c2ccccc2Oc2cc(O)ccc21 [Example 95] | 574 |  | 52.2 | 
Cc1nnc(NC(=O)C(C)(C)C2c3ccccc3Oc3cc(O)ccc32)s1 (stereo not drawn) [Example 100] | 256 |  | 71.7 | 
CN(C)C(=O)c1ccc(-c2ccc3c(c2)Oc2ccccc2C3C(C)(C)C(=O)Nc2nncs2)nc1 (stereo not drawn) [Example 102] | 58 |  | 45 | 
CC(C)Oc1ccc(-c2ccc3c(c2)Oc2ccccc2C3C(C)(C)C(=O)Nc2nncs2)nc1 (stereo not drawn) [Example 105] | 12.2 |  | 30.5 | 
CCc1cnc(-c2ccc3c(c2)Oc2ccccc2C3C(C)(C)C(=O)Nc2nncs2)nc1 (stereo not drawn) [Example 106] | 24.1 |  | 48.4 | 
CC(C)Oc1cnc(-c2ccc3c(c2)Oc2ccccc2[C@@H]3C(C)(C)C(=O)Nc2nncs2)nc1 [Example 107] | 833 |  | 22.8 | 
CN(C)C(=O)c1cnc(-c2ccc3c(c2)Oc2ccccc2C3C(C)(C)C(=O)Nc2nncs2)nc1 (stereo not drawn) [Example 109] | 182 |  | 60.2 | 
CCc1cnc(-c2ccc3c(c2)Oc2ccccc2[C@H]3C(C)(C)C(=O)Nc2nncs2)nc1 [Example 110] | 183 |  | 35.7 | 
CCc1cnc(-c2ccc3c(c2)Oc2ccccc2[C@@H]3C(C)(C)C(=O)Nc2nncs2)nc1 [Example 111] | 14.6 |  | 40.7 | 
CC(C)(C(=O)Nc1nncs1)C1c2ccccc2Oc2cc(/C(N)=N\O)ccc21 (stereo not drawn) [Example 115] | 3.9 |  | 31.3 | 
CC(C)(C(=O)Nc1nncs1)C1c2ccccc2Oc2cc(NC(=O)OCc3ccccc3)ccc21 (stereo not drawn) [Example 119] | 83 |  | 45.3 | 
Cc1ccc(COC(=O)Nc2ccc3c(c2)Oc2ccccc2C3C(C)(C)C(=O)Nc2nncs2)cc1 (stereo not drawn) [Example 121] | 59.5 |  | 44.8 | 
CC(C)(C(=O)Nc1nncs1)C1c2ccccc2Oc2cc(NC(=O)NC3CCCC3)ccc21 (stereo not drawn) [Example 125] | 94.3 |  | 33.2 | 
CC(C)(C(=O)Nc1nncs1)C1c2ccccc2Oc2cc(-c3nn[nH]n3)ccc21 (stereo not drawn) [Example 126] | 49.7 |  | 30.8 | 
COc1ccc(CNc2ccc3c(n2)Oc2ccccc2C3C(C)(C)C(=O)Nc2nncs2)cc1 (stereo not drawn) [Example 128] | 92 |  | 66.3 | 

Further lines, with some results ahead:

EC50 [2] [nM] | EC50 (Cellular Transrepression Assay) [nM] | SMILES | Emax [1] [%] | AP-1 Max % inh (Cellular Transrepression Assay) (maximum inhibition, Cellular Transrepression Assay) [%]
15.7 |  | CC(C)(C(=O)Nc1nc(Cc2ccc(-c3ccncc3)cc2)cs1)C1c2ccccc2CCc2ccccc21 [Example 24] | 78.8 | 
338 |  | CC(C)(C(=O)Nc1nc(-c2cccc3ccccc23)cs1)C1c2ccccc2Oc2ccccc21 [Example 30] | 67.2 | 
179 |  | Cc1ccc(-c2csc(NC(=O)C(C)(C)C3c4ccccc4Oc4ccccc43)n2)c2ccccc12 [Example 31] | 69.4 | 
302 |  | CC(C)(C(=O)Nc1nc(-c2ccc(F)c3ccccc23)cs1)C1c2ccccc2Oc2ccccc21 [Example 32] | 67.6 | 
31.8 |  | COc1ccc(Cc2csc(NC(=O)C(C)(C)C3c4ccccc4Oc4ccccc43)n2)cc1 [Example 33] | 55.2 | 
3.52 |  | CC(C)(C(=O)Nc1nc(Cc2ccc(-c3ccncc3)cc2)cs1)C1c2ccccc2Oc2ccccc21 [Example 34] | 71.8 | 
80.6 |  | CC(C)(C(=O)Nc1nc(Cc2ccc(Br)cc2)cs1)C1c2ccccc2Oc2ccccc21 [Example 35] | 72.3 | 
5.82 |  | CC(C)(C(=O)Nc1nc(Cc2ccc(-c3cn[nH]c3)cc2)cs1)C1c2ccccc2Oc2ccccc21 [Example 41] | 73.8 | 
3.7 |  | Cn1cc(-c2ccc(Cc3csc(NC(=O)C(C)(C)C4c5ccccc5Oc5ccccc54)n3)cc2)cn1 [Example 42] | 73.4 | 
13.4 |  | Cc1noc(C)c1-c1ccc(Cc2csc(NC(=O)C(C)(C)C3c4ccccc4Oc4ccccc43)n2)cc1 [Example 43] | 71.9 | 
90.2 |  | COc1ccc2c(c1)Oc1ccccc1C2C(C)(C)C(=O)Nc1nc(-c2ccc(C)c3ccccc23)cs1 (stereo not drawn) [Example 46] | 67.6 | 
40.3 |  | COc1ccc(Cc2csc(NC(=O)C(C)(C)C3c4ccccc4Oc4cc(OC)ccc43)n2)cc1 (stereo not drawn) [Example 49] | 68.8 | 
165 |  | COc1ccc2c(c1)Oc1ccccc1C2C(C)(C)C(=O)Nc1nc(Cc2ccc(Br)cc2)cs1 (stereo not drawn) [Example 50] | 74.8 | 
6.87 |  | COc1ccc2c(c1)Oc1ccccc1C2C(C)(C)C(=O)Nc1nc(Cc2ccc(-c3ccncc3)cc2)cs1 (stereo not drawn) [Example 51] | 77.9 | 
213 |  | COc1ccc2c(c1)Oc1ccccc1C2C(C)(C)C(=O)Nc1nc(-c2cccc3ccccc23)cs1 (stereo not drawn) [Example 52] | 70.8 | 
 | 78.5 | COc1ccc(Cc2csc(NC(=O)C(C)(C)C3c4ccccc4Oc4cc(OC)ccc43)n2)cc1 (stereo not drawn) [Example 53] |  | 72.00
13.1 |  | COc1ccc2c(c1)Oc1ccccc1[C@H]2C(C)(C)C(=O)Nc1nc(Cc2ccc(-c3ccncc3)cc2)cs1 [Example 54] | 71.4 | 
21.5 |  | COc1ccc2c(c1)Oc1ccccc1[C@H]2C(C)(C)C(=O)Nc1nc(Cc2ccc(-c3cccnc3)cc2)cs1 [Example 55] | 75.5 | 
11.5 |  | COc1ccc(Cc2csc(NC(=O)C(C)(C)[C@H]3c4ccccc4Oc4cc(OC)ccc43)n2)cc1 [Example 57] | 74.8 | 
3.71 |  | COc1ccc2c(c1)Oc1ccccc1[C@@H]2C(C)(C)C(=O)Nc1nc(Cc2ccc(-c3ccncc3)cc2)cs1 [Example 58] | 70 | 
11.8 |  | COc1ccc2c(c1)Oc1ccccc1[C@@H]2C(C)(C)C(=O)Nc1nc(Cc2ccc(-c3cccnc3)cc2)cs1 [Example 59] | 58.4 | 
19.9 |  | CC(C)(C(=O)Nc1nc(Cc2ccc(-c3ccncc3)cc2)cs1)C1c2ccccc2Oc2ncccc21 (stereo not drawn) [Example 64] | 79.3 | 
91.6 |  | COc1ccc(Cc2csc(NC(=O)C(C)(C)C3c4ccccc4Oc4nc(OC)ccc43)n2)cc1 (stereo not drawn) [Example 77] | 73.9 | 
9.42 |  | COc1ccc2c(n1)Oc1ccccc1C2C(C)(C)C(=O)Nc1nc(Cc2ccc(-c3ccncc3)cc2)cs1 (stereo not drawn) [Example 79] | 62.3 | 
15 |  | COc1cccc2c1Oc1ccccc1C2C(C)(C)C(=O)Nc1nc(Cc2ccc(-c3ccncc3)cc2)cs1 (stereo not drawn) [Example 83] | 69.6 | 
